Experimental findings from patent US12473301B2, “Isoquinoline compounds for the treatment of cancer” (Genentech, Inc., priority 2018, dated 2025) are described below.

pKi: −log10 of the molar value.

Chain of HPK1 (Q92918 whole entry T165E/S171E): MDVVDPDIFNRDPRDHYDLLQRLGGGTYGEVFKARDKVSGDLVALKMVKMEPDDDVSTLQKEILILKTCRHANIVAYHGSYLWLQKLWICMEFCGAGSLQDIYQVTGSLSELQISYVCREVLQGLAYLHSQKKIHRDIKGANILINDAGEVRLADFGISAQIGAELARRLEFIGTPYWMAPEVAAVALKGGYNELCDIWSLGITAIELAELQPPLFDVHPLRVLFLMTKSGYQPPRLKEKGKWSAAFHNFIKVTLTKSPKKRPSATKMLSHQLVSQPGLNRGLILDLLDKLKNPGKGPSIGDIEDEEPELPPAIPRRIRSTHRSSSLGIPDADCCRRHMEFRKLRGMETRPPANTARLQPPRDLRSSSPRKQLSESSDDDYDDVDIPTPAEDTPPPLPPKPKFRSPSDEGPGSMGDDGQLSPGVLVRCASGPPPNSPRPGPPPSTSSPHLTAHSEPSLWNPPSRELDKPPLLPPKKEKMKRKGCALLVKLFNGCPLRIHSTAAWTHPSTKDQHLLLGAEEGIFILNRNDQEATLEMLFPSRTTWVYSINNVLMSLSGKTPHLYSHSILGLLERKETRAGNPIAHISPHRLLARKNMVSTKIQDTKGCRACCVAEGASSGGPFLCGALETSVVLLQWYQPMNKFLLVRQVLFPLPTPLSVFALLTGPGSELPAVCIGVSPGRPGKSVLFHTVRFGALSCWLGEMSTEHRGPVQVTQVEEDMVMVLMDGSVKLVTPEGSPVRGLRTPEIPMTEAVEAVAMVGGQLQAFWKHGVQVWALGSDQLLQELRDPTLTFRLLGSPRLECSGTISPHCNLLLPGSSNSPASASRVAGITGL

The target in the assay is HPK1 (Homo sapiens (Human), UniProt Q92918, S171E/T165E). As to the kind of experiment: HPK1-FL HTRF Enzymatic Assay ("HTRF"). The class given is biochemical. The settings on record: HPK full length, ATP 1 mM. As for the experimental part:
HPK1-FL HTRF Enzymatic Assay (“HTRF”)
HPK-FL enzyme phosphorylates Biotin-SLP-76 substrate in the presence of ATP at 1 mM and varying concentrations of test compound. Product is detected by FRET using Eu-anti-pSLP76 Ab and SA-XL665. Also see www.cisbio.com/HTRF for additional HTRF technology information.
Instrumentation: Echo555 compound dispenser; Agilent Bravo; Perkin Elmer Envision.
To a 384 well Proxiplate with 80 nL compound or DMSO spotted on was added 4 μl/well kinase mix. The mixture was preincubated for 30 minutes and then 4 μl/well substrate mix was added. The solution was incubated for 60 min and then 4 μl/well detection mix was added. The solution was incubated for another 60 min. The plates were then loaded onto a
Perkin Elmer Envision and the TR-FRET signal was measured at […] and 665 nm. A ratio of 665/620 was used to calculate the % activity at each concentration of compound.
In general terms: TR-FRET usually uses a lanthanide donor and a delayed reading to cut background.
In the case of `Cc1c(-c2cc3cc(NC(=O)O[C@@H]4CCC[C@H]4C#N)ncc3c(Cl)c2F)cnc2c1NCCO2` (single isomer, unassigned) [Compound 127a], the pKi (commonly −log10 of the Ki, conventionally taken in molar units) was 9.09.

Molecule `CC[C@H]1[C@@H](C(=O)Nc2cc3cc(-c4cnc5c(c4C)NCCO5)c(F)cc3cn2)[C@@H]1c1cnn(C)c1` (single isomer, unassigned) [Compound 301d] showed a pKi of 8.74.

In turn, `Cc1c(-c2cc3cc(NC(=O)NC4CC4)ncc3cc2F)cnc2c1NCCO2` [Compound 207, 1-Cyclopropyl-3-(7-fluoro-6-(8-methyl-2,3-dihydro-1H-pyrido[2,3-b][1,4]oxazin-7-yl)isoquinolin-3-yl)urea] showed a pKi of 9.70.

With `Cc1c(-c2cc3cc(NC(=O)OCC4CCCCO4)ncc3cc2F)cnc2c1NCCO2` (racemic) [Compound 116, (Tetrahydro-2H-pyran-2-yl)methyl (7-fluoro-6-(8-methyl-2,3-dihydro-1H-pyrido[2,3-b][1,4]oxazin-7-yl)isoquinolin-3-yl)carbamate], the pKi was 8.12.

On to `Cc1c(-c2cc3cc(NC(=O)OC4CC5CC4CN5)ncc3cc2F)cnc2c1NCCO2` (stereo not drawn) [Compound 121, 2-Azabicyclo[2.2.1]heptan-5-yl (7-fluoro-6-(8-methyl-2,3-dihydro-1H-pyrido[2,3-b][1,4]oxazin-7-yl)isoquinolin-3-yl)carbamate], for which the pKi is 8.06.

Molecule `Cc1c(-c2cc3cc(NC(=O)NCC4CC4)ncc3cc2F)cnc2c1NCCO2` [Compound 202, 1-(Cyclopropylmethyl)-3-(7-fluoro-6-(8-methyl-2,3-dihydro-1H-pyrido[2,3-b][1,4]oxazin-7-yl)isoquinolin-3-yl)urea] gave a pKi of 9.30.

Regarding `Cc1c(-c2cc3cc(NC(=O)OC4CC5(CCNC5)C4)ncc3cc2F)cnc2c1NCCO2` (stereo not drawn) [Compound 134, 6-Azaspiro[3.4]octan-2-yl (7-fluoro-6-(8-methyl-2,3-dihydro-1H-pyrido[2,3-b][1,4]oxazin-7-yl)isoquinolin-3-yl)carbamate], the negative-log Ki (pKi) is 9.33.

As for `Cc1c(-c2cc3cc(NC(=O)NC(C)c4cnn(C)c4)ncc3cc2F)cnc2c1NCCO2` (single isomer, unassigned) [Compound 201b], the pKi is 8.00.

For the molecule `Cc1c(-c2cc3cc(NC(=O)OCC4CCNC4)ncc3cc2F)cnc2c1NCCO2` (racemic) [Compound 107, Pyrrolidin-3-ylmethyl (7-fluoro-6-(8-methyl-2,3-dihydro-1H-pyrido[2,3-b][1,4]oxazin-7-yl)isoquinolin-3-yl)carbamate], the pKi is 8.68.

In the case of `Cc1c(-c2cc3cc(NC(=O)OC4CC5(CNC5)C4)ncc3cc2F)cnc2c1NCCO2` [Compound 125, 2-Azaspiro[3.3]heptan-6-yl (7-fluoro-6-(8-methyl-2,3-dihydro-1H-pyrido[2,3-b][1,4]oxazin-7-yl)isoquinolin-3-yl)carbamate], the pKi was 9.47.

Regarding `Cc1c(-c2cc3cc(NC(=O)O[C@H]4[C@@H]5CNC[C@@H]54)ncc3cc2F)cnc2c1NCCO2` [Compound 129a, (1R,5S,6s)-3-Azabicyclo[3.1.0]hexan-6-yl (7-fluoro-6-(8-methyl-2,3-dihydro-1H-pyrido[2,3-b][1,4]oxazin-7-yl)isoquinolin-3-yl)carbamate], the pKi is 9.24.

In the case of `Cc1c(-c2cc3cc(NC(=O)O[C@@H]4CCC[C@H]4C#N)ncc3cc2F)cnc2c1NCCO2` (single isomer, unassigned) [Compound 128a], the pKi is 8.60.

The molecule `Cc1c(-c2cc3cc(NC(=O)NC4CCOC4)ncc3cc2F)cnc2c1NCCO2` (single isomer, unassigned) [Compound 206b] gave a pKi of 8.60.

On to `Cc1c(-c2cc3cc(NC(=O)NC(C)CC#N)ncc3cc2F)cnc2c1NCCO2` (single isomer, unassigned) [Compound 203a], for which the pKi was 8.40.

`Cc1c(-c2cc3cc(NC(=O)NC(C)c4cnn(C)c4)ncc3cc2F)cnc2c1NCCO2` (single isomer, unassigned) [Compound 201a] had a negative-log Ki (pKi) of 9.02.
